The nature of data set [1]: Acute toxicity in po dosed albino mouse. The data set is classed as organism-based. As to conditions: in vivo, read-out: ALD50.
For data set [2], the system named is Rattus norvegicus. Nature of the data set: Antiinflammatory activity in Charles-Foster albino rat assessed as inhibition of carrageenan-induced hind paw edema at 50 mg/kg, po relative to control. Type of data set: functional.
The test system of data set [3] is Rattus norvegicus. Nature of the data set: Antiinflammatory activity in Charles-Foster albino rat assessed as inhibition of carrageenan-induced hind paw edema at 100 mg/kg, po relative to control. The data set is classed as functional.
Data set [4] relates to Rattus norvegicus. Nature of the data set: Antiinflammatory activity in Charles-Foster albino rat assessed as inhibition of carrageenan-induced hind paw edema at 25 mg/kg, po relative to control. Type of data set: functional. On the technique in general: In the carrageenan paw model, swelling and tenderness develop within hours.

Turning to `COc1ccc(C2SCC(=O)N2n2c(CSc3nnc(-c4ccncc4)o3)nc3ccc(Br)cc3c2=O)cc1` (stereo not drawn), in data set [1], the LD50 was greater than 1000 mg/kg. Moreover, in the data set with Rattus norvegicus [2], the inhibition in vivo at 50 mg/kg was 35.3%.

`O=C1CSC(c2ccc(O)cc2)N1n1c(CSc2nnc(-c3ccncc3)o2)nc2ccc(Br)cc2c1=O` (stereo not drawn): the LD50 in data set [1] was greater than 1000 mg/kg. For the same molecule, in the data set on Rattus norvegicus [2], the inhibition in vivo at 50 mg/kg was 32.7%.

Take `O=C1C(Cl)C(c2ccc(Cl)cc2)N1n1c(CSc2nnc(-c3ccncc3)o2)nc2ccc(Br)cc2c1=O` (stereo not drawn): the LD50 in data set [1] was greater than 1000 mg/kg. The inhibition in vivo at 50 mg/kg in the data set on Rattus norvegicus [2] was 29.9%.

For the molecule `COc1ccc(C2C(Cl)C(=O)N2n2c(CSc3nnc(-c4ccncc4)o3)nc3ccc(Br)cc3c2=O)cc1` (stereo not drawn), the LD50 in data set [1] is greater than 1000 mg/kg. The inhibition in vivo at 50 mg/kg in the data set with Rattus norvegicus [2] was 28.6%.

`O=c1c2ccccc2nc(CSc2nnc(-c3ccncc3)o2)n1/N=C/c1ccccc1`: in data set [1], the LD50 was greater than 1000 mg/kg. Moreover, the inhibition in vivo at 50 mg/kg in the data set on Rattus norvegicus [2] was 16.3%.

As to `O=c1c2ccccc2nc(CSc2nnc(-c3ccncc3)o2)n1/N=C/c1ccc(Cl)cc1`, the LD50 in data set [1] was greater than 1000 mg/kg. Moreover, in the data set on Rattus norvegicus [2], the inhibition in vivo at 50 mg/kg came to 23.7%.

As for `O=C1C(Cl)C(c2ccc(O)cc2)N1n1c(CSc2nnc(-c3ccncc3)o2)nc2ccccc2c1=O` (stereo not drawn), in data set [1], the LD50 is greater than 1000 mg/kg. Moreover, the inhibition in vivo at 50 mg/kg with Rattus norvegicus [2] is 25.7%.

Take `O=C1CSC(c2ccc(O)cc2)N1n1c(CSc2nnc(-c3ccncc3)o2)nc2ccccc2c1=O` (stereo not drawn): in data set [1], the LD50 was greater than 1000 mg/kg. In addition, in the data set with Rattus norvegicus [2], the inhibition in vivo at 50 mg/kg came out at 31.7%.

On to `COc1ccc(/C=N/n2c(CSc3nnc(-c4ccncc4)o3)nc3ccc(Br)cc3c2=O)cc1`, for which the LD50 in data set [1] is greater than 1000 mg/kg. Further, the inhibition in vivo at 50 mg/kg in the data set with Rattus norvegicus [2] came out at 24.4%.

Turning to `O=C1CSC(c2ccccc2)N1n1c(CSc2nnc(-c3ccncc3)o2)nc2ccc(Br)cc2c1=O` (stereo not drawn), the LD50 in data set [1] is greater than 1000 mg/kg. Also, the inhibition in vivo at 50 mg/kg in the data set on Rattus norvegicus [2] amounted to 31.3%.

With `O=C1CSC(c2ccc(Cl)cc2)N1n1c(CSc2nnc(-c3ccncc3)o2)nc2ccc(Br)cc2c1=O` (stereo not drawn), the inhibition in vivo at 100 mg/kg with Rattus norvegicus [3] amounted to 66.9%. The LD50 in data set [1] was greater than 1000 mg/kg. Further, in the data set with Rattus norvegicus [2], the inhibition in vivo at 50 mg/kg came out at 25.2%. In addition, the inhibition in vivo at 25 mg/kg in the data set on Rattus norvegicus [4] is 25.2%.

With `O=C1CSC(c2ccccc2)N1n1c(CSc2nnc(-c3ccncc3)o2)nc2ccccc2c1=O` (stereo not drawn), in data set [1], the LD50 is greater than 1000 mg/kg. Further, in the data set with Rattus norvegicus [2], the inhibition in vivo at 50 mg/kg stood at 30.1%.

`COc1ccc(C2SCC(=O)N2n2c(CSc3nnc(-c4ccncc4)o3)nc3ccccc3c2=O)cc1` (stereo not drawn): the LD50 in data set [1] is greater than 1000 mg/kg. Further, the inhibition in vivo at 50 mg/kg in the data set on Rattus norvegicus [2] stood at 33.8%.

As for `COc1ccc(/C=N/n2c(CSc3nnc(-c4ccncc4)o3)nc3ccccc3c2=O)cc1`, the LD50 in data set [1] was greater than 1000 mg/kg. In addition, the inhibition in vivo at 50 mg/kg in the data set on Rattus norvegicus [2] was 20%.

Regarding `O=c1c2cc(Br)ccc2nc(CSc2nnc(-c3ccncc3)o2)n1/N=C/c1ccc(O)cc1`, the LD50 in data set [1] was greater than 1000 mg/kg. Besides, the inhibition in vivo at 50 mg/kg in the data set on Rattus norvegicus [2] was found to be 22.3%.

With `O=C1C(Cl)C(c2ccccc2)N1n1c(CSc2nnc(-c3ccncc3)o2)nc2ccccc2c1=O` (stereo not drawn), the LD50 in data set [1] was greater than 1000 mg/kg. Further, in the data set with Rattus norvegicus [2], the inhibition in vivo at 50 mg/kg amounted to 25.1%.

Consider `O=C1C(Cl)C(c2ccc(Cl)cc2)N1n1c(CSc2nnc(-c3ccncc3)o2)nc2ccccc2c1=O` (stereo not drawn), for which the LD50 in data set [1] is greater than 1000 mg/kg. For the same molecule, the inhibition in vivo at 50 mg/kg in the data set on Rattus norvegicus [2] amounted to 27.9%.

Consider `O=c1c2cc(Br)ccc2nc(CSc2nnc(-c3ccncc3)o2)n1/N=C/c1ccc(Cl)cc1`, for which the LD50 in data set [1] is greater than 1000 mg/kg. Moreover, the inhibition in vivo at 50 mg/kg with Rattus norvegicus [2] is 26.4%.

For the molecule `O=C1C(Cl)C(c2ccc(O)cc2)N1n1c(CSc2nnc(-c3ccncc3)o2)nc2ccc(Br)cc2c1=O` (stereo not drawn), the LD50 in data set [1] is greater than 1000 mg/kg. The inhibition in vivo at 50 mg/kg in the data set on Rattus norvegicus [2] was 27.4%.

With `O=c1c2ccccc2nc(CSc2nnc(-c3ccncc3)o2)n1/N=C/c1ccc(O)cc1`, the LD50 in data set [1] is greater than 1000 mg/kg. In addition, the inhibition in vivo at 50 mg/kg in the data set on Rattus norvegicus [2] was 18.2%.

Regarding `O=C1CSC(c2ccc(Cl)cc2)N1n1c(CSc2nnc(-c3ccncc3)o2)nc2ccccc2c1=O` (stereo not drawn), the LD50 in data set [1] is greater than 1000 mg/kg. For the same molecule, the inhibition in vivo at 50 mg/kg in the data set on Rattus norvegicus [2] amounted to 34.1%.

In the case of `O=c1c2cc(Br)ccc2nc(CSc2nnc(-c3ccncc3)o2)n1/N=C/c1ccccc1`, in data set [1], the LD50 is greater than 1000 mg/kg. Besides, the inhibition in vivo at 50 mg/kg in the data set with Rattus norvegicus [2] amounted to 19.4%.

With `O=C1C(Cl)C(c2ccccc2)N1n1c(CSc2nnc(-c3ccncc3)o2)nc2ccc(Br)cc2c1=O` (stereo not drawn), the LD50 in data set [1] is greater than 1000 mg/kg. In addition, in the data set on Rattus norvegicus [2], the inhibition in vivo at 50 mg/kg was 26.3%.

As for `COc1ccc(C2C(Cl)C(=O)N2n2c(CSc3nnc(-c4ccncc4)o3)nc3ccccc3c2=O)cc1` (stereo not drawn), in data set [1], the LD50 was greater than 1000 mg/kg. The inhibition in vivo at 50 mg/kg in the data set with Rattus norvegicus [2] came out at 26.1%.

For `CCCCC1C(=O)N(c2ccccc2)N(c2ccccc2)C1=O` [PHENYLBUTAZONE], in the data set with Rattus norvegicus [3], the inhibition in vivo at 100 mg/kg is 66.4%. Further, the inhibition in vivo at 50 mg/kg in the data set with Rattus norvegicus [2] came to 36.8%. In the data set with Rattus norvegicus [4], the inhibition in vivo at 25 mg/kg came out at 25.4%.

Broadly, the inhibition in vivo is the change of the read-out against control, counted positive when it falls.

For the origin of these results see ChEMBL document CHEMBL1152864, “Synthesis and anti-inflammatory activity of newer quinazolin-4-one derivatives” (Eur J Med Chem, 2009).
